Biological target: T1, heteromeric KV7.2/KV7.3 channels (KCNQ2, KCNQ3) (Homo sapiens, UniProt O43525+O43526)
T1 construct: expressed in transfected cells; host or cells: CHO-K1
Experiment: Automated patch-clamp (Sophion Qube 384) potency assay against KV7.2/KV7.3 channels
Type: cell-based
Conditions: CHO-K1/Kv7.2/Kv7.3 cells; for EC50: EC50 from concentration-response of shift in Vhalf, 10 concentrations up to 30 μM, read-out: Kv7.2/7.3 EC50; for Kv7.2/7.3 ΔV1/2: maximal shift in the Vhalf from the top of the curve
Excerpt: Assessment of In Vitro Potency Against KV7.2/KV7.3 Channels
An automated patch-clamp assay on the Sophion Qube 384 was developed for potency testing to identify small molecule activators of heteromeric KV7.2/KV7.3 channels (KCNQ2, Uniprot ID 043526; KCNQ3, Uniprot 043525).
The cell line used was a stably transfected CHO-K1 cell line with constitutive KV7.2/KV7.3 expression.
CHO-K1/Kv7.2/Kv7.3 cells were maintained in the following culture media: • DMEM/F-12 with GlutaMAX™ (Gibco 31331-028), • 10% Fetal clone 2 serum (Perbio Science SH30066.03), • 1 mg/ml Geneticin™ selective antibiotic (G418, Invitrogen 1013027), and • 5 μg/ml BlasticidinS HCl (Invivogen Ant-bl-5).
On the day of the experiment, cells were resuspended in serum free media, counted and diluted to a final concentration of 3.5×10^6 cells per ml of media.
Cells were then placed onto the Sophion Qube 384 and rested for a minimum of 1 hour.
The following solutions were used for recording: • extracellular solution (in mM): 145 NaCl, 4 KCl, 1 MgCl2, 2 CaCl2), 10 HEPES, 10 glucose, pH 7.4, 315-320 mOsm. • intracellular solution (in mM): 120 KCl, 5.74 CaCl2), 1.75 MgCl2, 10 EGTA, 10 HEPES, 5 Na2ATP, pH 7.2, adjusted to 315 mOsm with sucrose.
After establishing the whole-cell configuration, cells were held at −80 mV throughout the experiment. A current-voltage (I-V) protocol stepping from −100 to +20 mV for 1 second was applied to measure Kv7.2/Kv7.3 currents, each step was followed by a 200 ms pulse to 0 mV to measure the tail currents. From the I-V protocol a Boltzmann fit was applied to generate activation curves. Data were sampled at 25 kHz and filtered at 5 kHz (Bessel). Data were produced using multihole QChips. The I-V protocol was applied several times to establish the response in control conditions (typically 0.3% DMSO) and in the presence of the test compound.
Data were reviewed in Sophion Analyser version 6.5.2 (Sophion Bioscience) for recording quality and filters were applied to remove any failed wells. Leak subtraction was applied to all recordings. Data filters for multihole QChips were typically: seal resistance>4 MΩ, capacitance >20 pF, baseline VHalf between 0 to −40 mV, baseline holding current between −2 to 2 nA, baseline steady state current at 20 mV >4 nA unless otherwise stated.
Analysis of Data for Assessment of Potency
10 concentrations of test compounds were applied to individual wells in quadruplicate to assess potency as a 1 in 3 dilution series from the maximal concentration of 30 μM. The average shift in the voltage for half activation (Vhalf) for each concentration was used to generate concentration-response curves fitted with a 4-parameter logistic model to estimate the EC50 from the point of inflection of the curve and the maximal shift in the Vhalf from the top of the curve.
The lower the EC50 value, the higher the potency of the analyzed compound. The selectivity criteria is assigned on the basis of the maximal shift in the Vhalf at 30 μM. […] In Table 3, ND means that selectivity was not determined.

`O=C(NCc1ccnc(OCC(F)(F)F)n1)N[C@@H]1CCc2ccc(F)cc21` [Compound 167] was tested, and the EC50 was 10200 nM and the “Kv7.2/7.3 ΔV1/2” value was 20.68 mV.

With `Cc1cccc2c1[C@H](NC(=O)NCc1ccnc(OCC(F)(F)F)c1)CC2` [Compound 168] the EC50 was 2240 nM and the “Kv7.2/7.3 ΔV1/2” value was 37.25 mV.

In the case of `Cc1cccc2c1[C@@H](NC(=O)NCc1ccnc(OCC(F)(F)F)c1)CC2` [Compound 169], the EC50 is reported as 1400 nM and the “Kv7.2/7.3 ΔV1/2” value is reported as 24.08 mV.

`O=C(NCc1ccnc(OCC(F)(F)F)c1)N[C@@H]1CCOc2ccc(F)cc21` [Compound 170] was tested, and the EC50 was 1540 nM and the “Kv7.2/7.3 ΔV1/2” value was 42.82 mV.

With `O=C(NCc1ccnc(OCC(F)(F)F)n1)N[C@@H]1CCc2ccccc21` [Compound 171] the EC50 was 1240 nM and the “Kv7.2/7.3 ΔV1/2” value was 48.06 mV.

For `O=C(NCc1ccnc(OCC(F)(F)F)c1)N[C@@H]1CCc2sccc21` [Compound 172], the EC50 was 1980 nM and the “Kv7.2/7.3 ΔV1/2” value was 55.13 mV.

For `O=C(NCc1ccnc(OCC(F)(F)F)c1)N[C@H]1CSc2ccccc2C1` [Compound 173], the EC50 was 330 nM and the “Kv7.2/7.3 ΔV1/2” value was 31.15 mV.

For `O=C(NCc1ccnc(OCC(F)(F)F)c1)N[C@@H]1CCSc2ccccc21` [Compound 174], the EC50 was 1240 nM and the “Kv7.2/7.3 ΔV1/2” value was 47.65 mV.

`O=C(NCc1ccnc(OCC(F)(F)F)c1)N[C@H]1CCSc2ccccc21` [Compound 175] was tested, and the EC50 was 1220 nM and the “Kv7.2/7.3 ΔV1/2” value was 20.52 mV.

With `O=C(NCc1ccnc(OCC(F)(F)F)c1)N[C@@H]1CCc2c(F)cc(F)cc21` [Compound 176] the EC50 was 1090 nM and the “Kv7.2/7.3 ΔV1/2” value was 40.89 mV.

`COc1ccc2c(c1)CCC[C@H]2NC(=O)NCc1ccnc(OCC(F)(F)F)c1` [Compound 177] was tested, and the EC50 was 2280 nM and the “Kv7.2/7.3 ΔV1/2” value was 54.8 mV.

For `COc1ccc2c(c1)CCC[C@@H]2NC(=O)NCc1ccnc(OCC(F)(F)F)c1` [Compound 178], the EC50 was 8110 nM and the “Kv7.2/7.3 ΔV1/2” value was 27.73 mV.

`O=C(NCc1ccnc(OCC(F)(F)F)c1)N[C@@H]1CCOc2c(F)cccc21` [Compound 179] was tested, and the EC50 was 2000 nM and the “Kv7.2/7.3 ΔV1/2” value was 33.61 mV.

`O=C(NCc1ccnc(OCC(F)(F)F)n1)N[C@@H]1CCCc2ccccc21` [Compound 180] was tested, and the EC50 was 5830 nM and the “Kv7.2/7.3 ΔV1/2” value was 24.71 mV.

For `O=C(NCc1ccnc(OCC(F)(F)F)c1)N[C@H]1CCOc2c(F)cccc21` [Compound 181], the EC50 was 700 nM and the “Kv7.2/7.3 ΔV1/2” value was 24.16 mV.

For `COc1ccc2c(c1)[C@H](NC(=O)NCc1ccnc(OCC(F)(F)F)c1)CCO2` [Compound 182], the EC50 was 1550 nM and the “Kv7.2/7.3 ΔV1/2” value was 37.46 mV.

In the case of `COc1cccc2c1CCC[C@H]2NC(=O)NCc1ccnc(OCC(F)(F)F)c1` [Compound 183], the EC50 is reported as 2490 nM and the “Kv7.2/7.3 ΔV1/2” value is reported as 43.65 mV.

For `Cc1cccc2c1OCC[C@H]2NC(=O)NCc1ccnc(OCC(F)(F)F)c1` [Compound 184], the EC50 was 1230 nM and the “Kv7.2/7.3 ΔV1/2” value was 42.17 mV.

For `Cc1cccc2c1OCC[C@@H]2NC(=O)NCc1ccnc(OCC(F)(F)F)c1` [Compound 185], the EC50 was 5390 nM and the “Kv7.2/7.3 ΔV1/2” value was 22.68 mV.

With `O=C(NCc1ccnc(OCC(F)(F)F)c1)N[C@@H]1COc2ccccc2C1` [Compound 186] the EC50 was 290 nM and the “Kv7.2/7.3 ΔV1/2” value was 34.07 mV.

In the case of `O=C(NCc1ccnc(OCC(F)(F)F)c1)N[C@H]1COc2ccccc2C1` [Compound 187], the EC50 is reported as 2330 nM and the “Kv7.2/7.3 ΔV1/2” value is reported as 21.99 mV.

In the case of `O=C(NCc1ccnc(OCC(F)(F)F)c1)N[C@@H]1CCC[C@H]1c1ccc(F)cc1` [Compound 188], the EC50 is reported as 470 nM and the “Kv7.2/7.3 ΔV1/2” value is reported as 28.3 mV.

With `O=C(NCc1ccnc(OCC(F)(F)F)c1)N[C@H]1CCOc2cccc(F)c21` [Compound 189] the EC50 was 2720 nM and the “Kv7.2/7.3 ΔV1/2” value was 32.95 mV.

With `COc1ccc2c(c1)C[C@H](NC(=O)NCc1ccnc(OCC(F)(F)F)c1)CC2` [Compound 190] the EC50 was 820 nM and the “Kv7.2/7.3 ΔV1/2” value was 20.58 mV.

With `O=C(NCc1ccnc(OCC(F)(F)F)c1)N[C@@H]1CCCc2cc(F)ccc21` [Compound 191] the EC50 was 1170 nM and the “Kv7.2/7.3 ΔV1/2” value was 46.54 mV.

`CC1(C)C[C@@H](NC(=O)NCc2ccnc(OCC(F)(F)F)c2)c2ccccc21` [Compound 192] was tested, and the EC50 was 1690 nM and the “Kv7.2/7.3 ΔV1/2” value was 47.09 mV.

With `CC1(C)C[C@H](NC(=O)NCc2ccnc(OCC(F)(F)F)c2)c2ccccc21` [Compound 193] the EC50 was 520 nM and the “Kv7.2/7.3 ΔV1/2” value was 23.15 mV.

`COc1cccc(N2CC[C@@H](NC(=O)NCc3ccnc(OCC(F)(F)F)c3)C2)c1` [Compound 194] was tested, and the EC50 was 2580 nM and the “Kv7.2/7.3 ΔV1/2” value was 29.55 mV.

In the case of `O=C(NCc1ccnc(OCC(F)(F)F)c1)N[C@@H]1CCO[C@@H](c2ccccc2)C1` [Compound 195], the EC50 is reported as 6670 nM and the “Kv7.2/7.3 ΔV1/2” value is reported as 39.68 mV.

`O=C(NCc1ccnc(OCC(F)(F)F)c1)N[C@@H]1CC[C@H](c2ccccc2)C1` [Compound 196] was tested, and the EC50 was 1540 nM and the “Kv7.2/7.3 ΔV1/2” value was 56.75 mV.

In the case of `O=C(NCc1ccnc(OCC(F)(F)F)c1)N[C@H]1CCO[C@@H]1c1ccccc1` [Compound 197], the EC50 is reported as 7620 nM and the “Kv7.2/7.3 ΔV1/2” value is reported as 39.86 mV.

`O=C(NCc1ccnc(OCC(F)(F)F)c1)N[C@H]1CC[C@@H](c2ccccc2F)C1` [Compound 198] was tested, and the EC50 was 1370 nM and the “Kv7.2/7.3 ΔV1/2” value was 76.04 mV.

`O=C(NCc1ccnc(OCC(F)(F)F)c1)N[C@@H]1COc2c(F)cccc21` [Compound 199] was tested, and the EC50 was 1820 nM and the “Kv7.2/7.3 ΔV1/2” value was 36.36 mV.

`CC1(C)C[C@H](NC(=O)NCc2ccnc(OCC(F)(F)F)c2)c2ccccc2O1` [Compound 200] was tested, and the EC50 was 2510 nM and the “Kv7.2/7.3 ΔV1/2” value was 25.04 mV.

In the case of `O=C(NCc1ccnc(OCC(F)(F)F)c1)NC[C@H]1COc2ccccc2C1` [Compound 201], the EC50 is reported as 2220 nM and the “Kv7.2/7.3 ΔV1/2” value is reported as 27.95 mV.

With `COc1ccccc1N1CC[C@@H](NC(=O)NCc2ccnc(OCC(F)(F)F)c2)C1` [Compound 202] the EC50 was 4340 nM and the “Kv7.2/7.3 ΔV1/2” value was 26.02 mV.

For `CO[C@@H]1CCOc2c(NC(=O)NCc3ccnc(OCC(F)(F)F)c3)cccc21` [Compound 203], the EC50 was 2870 nM and the “Kv7.2/7.3 ΔV1/2” value was 20.92 mV.

With `O=C(NCc1ccnc(OCC(F)(F)F)c1)N[C@@H]1CCOc2cc(F)ccc21` [Compound 204] the EC50 was 980 nM and the “Kv7.2/7.3 ΔV1/2” value was 38.78 mV.

With `C[C@@H](Oc1cc(CNC(=O)N[C@@H]2CCOc3ccccc32)ncn1)C(F)(F)F` [Compound 205] the EC50 was 7090 nM and the “Kv7.2/7.3 ΔV1/2” value was 40.29 mV.

`C[C@@H](Oc1cc(CNC(=O)N[C@@H]2CCOc3ccc(F)cc32)ncn1)C(F)(F)F` [Compound 206] was tested, and the EC50 was 6780 nM and the “Kv7.2/7.3 ΔV1/2” value was 33.98 mV.

With `C[C@@H](Oc1cc(CNC(=O)N[C@@H]2COc3ccccc32)ncn1)C(F)(F)F` [Compound 207] the EC50 was 10200 nM and the “Kv7.2/7.3 ΔV1/2” value was 23.90 mV.

For `C[C@@H](Oc1cc(CNC(=O)N[C@@H]2COc3ccc(F)cc32)ncn1)C(F)(F)F` [Compound 208], the EC50 was 8150 nM and the “Kv7.2/7.3 ΔV1/2” value was 23.96 mV.

For `COc1ccc2c(c1)[C@H](NC(=O)NCc1cc(O[C@H](C)C(F)(F)F)ncn1)CCO2` [Compound 209], the EC50 was 9700 nM and the “Kv7.2/7.3 ΔV1/2” value was 37.49 mV.

`COc1ccc([C@@H](C)NC(=O)NCc2ccnc(OCC(F)(F)F)c2)cc1` [Compound 210] was tested, and the EC50 was 4540 nM and the “Kv7.2/7.3 ΔV1/2” value was 27.31 mV.

For `O=C(NCc1ccc(OC(F)(F)F)cc1)NCc1ccnc(OCC(F)(F)F)c1` [Compound 211], the EC50 was 3130 nM and the “Kv7.2/7.3 ΔV1/2” value was 22.62 mV.

In the case of `O=C(NCc1ccnc(OCC(F)(F)F)c1)N[C@@H](C1CC1)C(F)(F)F` [Compound 212], the EC50 is reported as 1490 nM and the “Kv7.2/7.3 ΔV1/2” value is reported as 41.94 mV.

`O=C(NCc1ccnc(OCC(F)(F)F)c1)N[C@H](C1CC1)C(F)(F)F` [Compound 213] was tested, and the EC50 was 680 nM and the “Kv7.2/7.3 ΔV1/2” value was 31.5 mV.

For `O=C(NCc1ccnc(OCC(F)(F)F)c1)N[C@@H]1CCN(CC(F)(F)F)C1` [Compound 214], the EC50 was 8950 nM and the “Kv7.2/7.3 ΔV1/2” value was 30.24 mV.

In the case of `COc1ccc([C@H](CF)NC(=O)NCc2ccnc(OCC(F)(F)F)c2)cc1` [Compound 215], the EC50 is reported as 4170 nM and the “Kv7.2/7.3 ΔV1/2” value is reported as 24.17 mV.

— patent US20260207563A1, “UREA COMPOUNDS AS ACTIVATORS OF POTASSIUM CHANNELS KV7.2/7.3 USEFUL IN THE TREATMENT OF CNS AND PNS DISORDERS” (ANGELINI PHARMA S.P.A., priority 2022, published 2026)
